Measurements as given in patent US20210070747A1, “2(1H)-QUINOLINONE DERIVATIVE” (priority 2017, published 2021).
Values after ≈ are worked out from the molar mass of the structure shown. Counter-ions that a name gives are not always drawn. Like-named read-outs stand apart in the source and are kept apart here.

How the values were obtained:
E. coli DNA gyrase = biological target: T1, E. coli DNA gyrase (Escherichia coli, UniProt P0AES6); assay: Test for evaluating the activity of inhibiting E. coli DNA gyrase enzyme (Method 1, supercoiling, Inspiralis enzyme); assay type: biochemical
T1 construct: made in house; host or cells: E. coli BL21 (DE3)
Procedure: Test Example 1-1 Test for Evaluating the Activity of Inhibiting E. coli DNA Gyrase Enzyme (Method 1)
The enzymatic activity of E. coli DNA gyrase was measured by a method comprising reacting DNA gyrase and its substrate, relaxed pBR322 (Inspiralis), in the presence of ATP and detecting the post-reaction supercoiled pBR322/relaxed pBR322 ratio with H19 (Profoldin).
Specifically, to 1 ng/μL of relaxed pBR322, E. coli DNA gyrase enzyme (Inspiralis) was added at a final concentration of 0.006 U/μL and the mixture was incubated for 60 minutes at room temperature. This reaction was carried out in 20 mmol/L tris-HCl buffered solution (pH 8.0) comprising 0.5 mmol/L ATP, 0.005% bridge 35, 35 mmol/L ammonium acetate, 8 mmol/L magnesium chloride, 4.6% glycerol, and 1 mmol/L dithiothreitol. To the reaction mixture, H19 was added to bring the reaction to an end; thereafter, the supercoiled pBR322/relaxed pBR322 ratio was detected at excitation wavelength/emission wavelength=485 nm/535 nm. An inhibition curve was obtained by allowing the analyte compound to be present at varying concentrations during the reaction described above. […] The test results of interest are shown in [Table 20-1] and [Table 20-2].

E. Coli ATCC 25922 = assay: Test for evaluating antibacterial activity (E. coli), broth microdilution MIC; assay type: cell-based; conditions: Escherichia coli, ATCC25922; 35° C., 18 hours, cation-adjusted Mueller-Hinton medium
In short: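 Broth microdilution per modified CLSI method in cation-adjusted Mueller-Hinton medium. Inoculum from overnight heart infusion agar growth, McFarland 0.5 suspension diluted 10-fold; incubation 35° C for 18 hours. MIC taken as lowest drug concentration with no visible growth.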

[1] = system: N. gonorrhoeae ATCC 49226; assay: Test for evaluating antibacterial activity (N. gonorrhoeae), broth microdilution MIC; assay type: cell-based; conditions: Neisseria gonorrhoeae, ATCC49226; 35° C., 24 hours, gonococcal broth
Procedure: Minimum inhibitory concentration (MIC) was measured using the broth microdilution method described below in accordance with a modification of the method of Geers et al. (Antimicrob. Agents. Chemother. (1989), 33, 233-234).
After sterilization, BD. Difco supplement C was added to give a final concentration of 1%, whereby a gonococcal broth was prepared.
Bacterial cells under test were cultured overnight on a chocolate II agar medium, scraped off and suspended at a concentration equivalent to McFarland 0.5 turbidity; the suspension thus obtained was diluted 5 folds to give a liquid inoculum. The inoculum (0.005 mL) was inoculated on a gonococcal broth containing the analyte compound and cultured at 35° C. for 24 hours. A minimum drug concentration at which no bacterial growth was macroscopically visible was designated MIC.

[2] = Method 1, read-out: E. Coli Gyrase supercoiling IC50

SMILES | IC50 (E. coli DNA gyrase; [2]) [nM] | MIC (E. Coli ATCC 25922) [µg/mL] | MIC [1] [µg/mL] | IC50 (E. coli DNA gyrase) [nM]
CNc1cccc2cc(C(=O)NC3CCN(c4ncc(C(=O)O)s4)CC3)c(=O)[nH]c12 [Example 3, 2-(4-{[8-(methylamino)-2-oxo-1,2-dihydroquinoline-3-carbonyl]amino}piperidine-1-yl)-1,3-thiazole-5-carboxylic acid] | 124 | > 64 | > 4 | –
CNc1cccc2cc(C(=O)Nc3ccccc3CN(C)C3CCCCC3)c(=O)[nH]c12 [Example 7, N-(2-[[Cyclohexyl(methyl)amino]methyl]phenyl)-8-(methylamino)-2-oxo-1,2-dihydroquinoline-3-carboxamide] | 3.35 | > 32 | > 4 | –
CNc1cccc2cc(C(=O)NCc3ccc(C(=O)O)cc3C)c(=O)[nH]c12 [Example 8, 3-methyl-4-({[8-(methylamino)-2-oxo-1,2-dihydroquinoline-3-carbonyl]amino}methyl)benzoic acid] | 30.1 | > 64 | 4 (≈ 10.9 µM) | –
CNc1cccc2cc(C(=O)NCc3noc(=O)[nH]3)c(=O)[nH]c12 [Example 14, 8-(methylamino)-2-oxo-N-[(5-oxo-4,5-dihydro-1,2,4-oxadiazole-3-yl)methyl]-1,2-dihydroquinoline-3-carboxamide] | 35500 | – | > 4 | –
CNc1cccc2cc(C(=O)Nc3cccc(=O)[nH]3)c(=O)[nH]c12 [Example 16, 8-(methylamino)-2-oxo-N-(6-oxo-1,6-dihydro-pyridine-2-yl)-1,2-dihydroquinoline-3-carboxamide] | 131 | > 64 | > 4 | –
CNc1nccc2cc(C(=O)Nc3ccc(C(=O)O)cc3)c(=O)[nH]c12 [Example 17, 4-[[8-(Methylamino)-2-oxo-1,2-dihydro-1,7-naphthyridine-3-carbonyl]amino]benzoic Acid] | 293 | > 64 | > 1 | –
CNc1cccc2cc(C(=O)Nc3ccc(-c4noc(=O)[nH]4)cc3)c(=O)[nH]c12 [Example 18, 8-(methylamino)-2-oxo-N-[4-(5-oxo-4,5-dihydro-1,2,4-oxadiazole-3-yl)phenyl]-1,2-dihydroquinoline-3-carboxamide] | 15.7 | > 0.5 | 0.25 (≈ 0.662 µM) | –
CNc1cccc2cc(C(=O)OCc3ccncc3N)c(=O)[nH]c12 [Example 19, (3-aminopyridine-4-yl)methyl 8-(methyl-amino)-2-oxo-1,2-dihydroquinoline-3-carboxylate] | 426 | > 16 | > 4 | –
CN=S(C)(=O)c1ccc(NC(=O)c2cc3cccc(NC)c3[nH]c2=O)cc1 (centres unmarked) [Example 22, N-[4-(N,S-dimethane-sulfonimidoyl)phenyl]-8-(methylamino)-2-oxo-1,2-dihydroquinoline-3-carboxamide] | 174 | > 8 | > 4 | –
CNc1cccc2cc(C(=O)Nc3cnc(N4CCN(C)CC4)nc3)c(=O)[nH]c12 [Example 28, 8-(methylamino)-N-[2-(4 methylpiperazine-1-yl)pyrimidine-5-yl]-2-oxo-1,2-dihydroquinoline-3-carboxamide] | 32 | > 16 | > 4 | –
CNc1cccc2cc(C(=O)NCCc3cn4cccnc4n3)c(=O)[nH]c12 [Example 29, N-[2-(imidazo [1,2-a]pyrimidine-2-yl)ethyl]-8-(methylamino)-2-oxo-1,2-dihydroquinoline-3-carboxamide] | 28.2 | > 64 | > 4 | –
CNc1cc(F)cc2cc(C(=O)Nc3cncnc3)c(=O)[nH]c12 [Example 50, 6-fluoro-8-(methylamino)-2-oxo-N-(pyrimidine-5-yl)-1,2-dihydroquinoline-3-carboxamide] | 1.87 | > 8 | 0.06 (≈ 0.192 µM) | –
CNc1cc(F)cc2cc(C(=O)Nc3ccc(C(=O)O)c(OCCN4CCN(C)CC4)c3)c(=O)[nH]c12 [Example 54, 4-{[6-fluoro-8-(methylamino)-2-oxo-1,2-dihydroquinoline-3-carbonyl]amino}-2-[2-(4-methylpiperazine-1-yl)ethoxy] benzoic acid-hydrochloride] | 1.9 | > 16 | 1 | –
CNc1cc(F)cc2cc(C(=O)N(C)c3ccc(C(=O)O)cc3)c(=O)[nH]c12 [Example 56, 4-{[6-fluoro-8-(methylamino)-2-oxo-1,2-dihydroquinoline-3-carbonyl] (melhyl)amino} benzoic acid] | – | > 64 | 0.12 (≈ 0.325 µM) | 18
CNc1cc(F)cc2cc(C(=O)Nc3cnc(NCCN)nc3)c(=O)[nH]c12.O=CO [Example 59, N-{2-[(2-aminoethyl)amino]pyrimidine-5-yl}-6-fluoro-8-(methylamino)-2-oxo-1,2-dihydroquinoline-3-carboxamide-formate] | – | > 2 | – | 14.7
CNc1cc(F)cc2cc(C(=O)Nc3cnc(N4CC(N)C4)nc3)c(=O)[nH]c12.O=CO [Example 60, N-[2-(3-aminoazetidine-1-yl)pyrimidine-5-yl]-6-fluoro-8-(methylamino)-2-oxo-1,2-dihydroquinoline-3-carboxamide-formate] | – | > 32 | – | 11.8
CNc1cc(F)cc2cc(C(=O)Nc3cnc(C(=O)OC)nc3)c(=O)[nH]c12 [Example 63, methyl 5-{[6-fluoro-8-(methylamino)-2-oxo-1,2-dihydroquinoline-3-carbonyl]amino}pyrimidine-2-carboxylate] | – | > 16 | – | 1.44
CNc1cc(F)cc2cc(C(=O)NCCc3cccnc3)c(=O)[nH]c12 [Example 64, 6-fluoro-8-(methylamino)-2-oxo-N-[2-(pyridine-3-yl)ethyl]-1,2-dihydroquinoline-3-carboxamide] | 44.7 | > 8 | – | –
CNc1cc(F)cc2cc(C(=O)Nc3ccc(C(=O)N(C)CCN4CCOCC4)cc3)c(=O)[nH]c12 [Example 67, 6-fluoro-8-(methylamino)-N-(4-{methyl[2-(morpholine-4-yl)ethyl]carbamoyl}phenyl)-2-oxo-1,2-dihydroquinoline-3-carboxamide] | 6.36 | > 16 | – | –
CNc1cc(F)cc2cc(C(=O)Nc3ccc(C(=O)NCCN)cc3)c(=O)[nH]c12.Cl [Example 68, N-(4-[(2-aminoethyl)carbamoyl]phenyl}-6-fluoro-8-(methylamino)-2-oxo-1,2-dihydroquinoline-3-carboxamide-hydrochloride] | – | > 8 | – | 9.4
CNc1cc(F)cc2cc(C(=O)Nc3cnc(NCCN4CCOCC4)nc3)c(=O)[nH]c12 [Example 69, 6-fluoro-8-(methylamino)-N-(2-{[2-(morpholine-4-yl)ethyl]amino}pyrimidine-5-yl)-2-oxo-1,2-dihydroquinoline-3-carboxamide] | 7 | 8 (≈ 18.1 µM) | – | –
CNc1cc(F)cc2cc(C(=O)Nc3cnc(C(=O)NCCO)nc3)c(=O)[nH]c12 [Example 71, 6-Fluoro-N-[2-[(2-hydroxyethyl)carbamoyl]pyrimidin-5-yl]-8-(methylamino)-2-oxo-1,2-dihydroquinoline-3-carboxamide] | 0.88 | > 8 | – | –
CNc1cc(F)cc2cc(C(=O)Nc3cnccc3C)c(=O)[nH]c12 [Example 73, 6-fluoro-8-(methylamino)-N-(4-methylpyridine-3-yl)-2-oxo-1,2-dihydroquinoline-3-carboxamide] | 23 | > 8 | – | –
CNc1cc(F)cc2cc(C(=O)Nc3ccc(C(=O)O)cc3CNCCO)c(=O)[nH]c12 [Example 74, 4-{[6-fluoro-8-(methylamino)-2-oxo-1,2-dihydroquinoline-3-catbonyl]amino}-3-{[(2-hydroxyethyl)amino]methyl} benzoic acid-hydrochloride] | 129 | > 64 | – | –
CNc1cc(F)cc2cc(C(=O)Nc3ccc(C(=O)NCCN4CCOCC4)cc3CN(C)C3CCCCC3)c(=O)[nH]c12 [Example 75, N-(2-{[cyclohexyl(methyl)amino]methyl}-4-{[2-(morpholine-4-yl)ethyl]carbamoyl}phenyl)-6-fluoro-8-(methylamino)-2-oxo-1,2-dihydroquinoline-3-carboxamide] | 0.25 | 8 (≈ 13.5 µM) | – | –
CNc1cc(F)cc2cc(C(=O)Nc3cnc(OCCN4CCOCC4)nc3)c(=O)[nH]c12 [Example 80, 6-fluoro-8-(methylamino)-N-{2-[2-(morpholine-4-yl)ethoxy]pyrimidine-5-yl}-2-oxo-1,2-dihydroquinoline-3-carboxamide] | 2.5 | > 16 | – | –
